Experimental findings from patent US5932483A, “Synthetic peptide and its uses” (Northwestern University, priority 1996, dated 1999) are described below.

In assay [1] the test system is sensitized sheep erythrocytes (SRBCs), human serum as complement. Put plainly: Sheep red blood cell lysis assay (SRBC assay). The class given is cell-based. To be noted: highest concentration (1 mM) tested.
Assay [2] has as its system pig aorta endothelial cells (PAECs), human serum. The assay is described as follows: Chromium release assay (PAEC assay). The class given is cell-based. To be noted: highest concentration (1 mM) tested. The procedure:
Culture plates (Falcon 24-well plates, Becton Dickinson, Lincoln Park, N.J.) were coated by addition of 0.5 ml/well of 2% gelatin (Type B, from bovine skin, Sigma Chemical Co.) diluted 1:10 in Hanks buffered salt solution (Gibco BRL, Grand Island, N.Y.), followed by incubation for 15 min at room temperature. The gelatin solution was removed, and 125×10^3 pig aorta endothelial cells (PAECs, Cell Systems, Kirkland, Wash.) in 2 ml of cell culture medium (CCM, Dulbecco's modified Eagle's medium (DMEM) with high glucose (Gibco BRL) containing 20% defined fetal bovine serum (FBS, HyClone Laboratories, Logan, Utah) that had been heat inactived for 30 min at 56° C., 1%(v/v) L-glutamine (200 mM, Gibco BRL) and penicillin G sodium (10,000 units/ml)/streptomycin sulfate (10,000 μg/ml in 0.85% saline, Gibco BRL)] were added per well. The plate was centrifuged in a model GS-6R Beckman table top centrifuge at 20×g for 2 min with the brake off to settle the cells onto the gelatin in a even monolayer, after which the plate was incubated at 37° C. in 5% CO2 -95% air. After 4 hours, cell attachment had occurred, and the CCM was removed and replaced with 2 ml of fresh CCM. In 2-4 days the PAECs had grown to 80-100% confluence and were used in the complement mediated chromium release assay.
The PAECs were washed 3 times with 1 ml of serum free medium (SFM), leaving the SFM on the cells for 5 min each time. Chromium radioisotope (^51 Cr, NaCrO4, Amersham Corp., Arlington Heights, Ill.) was diluted in SFM to give 40 μCi/ml, and 100 μl were added to each well of the PAEC culture plate. The plate was incubated for 2 hours at 37° C. in 5% CO2 -95% air. The wells were washed three times with 1 ml of SFM. Then, 1 ml of PBS was added to each well, and the plate was incubated at 37° C. for 30 min to help reduce ^51 Cr background.
The various peptide inhibitors (diluted in SFM) were added (300 μl/well) and incubated with the PAECs at 37° C. for 30 min. Undiluted human serum (HS, 100 μl) or 100 μl of heat inactivated human serum (HIHS) was added to each well, and the plate was incubated at 37° C. for 1 hour. Supernatant (200 μl) was removed from each well and added to 200 μl of scintillation cocktail (OptiPhase `Supermix`, Wallac Inc., Turku, Finland) previously added to each well of a 24-well polyethylene terephtalate reading plate (Wallac Inc.), and the plate was sealed with an acetate plate sealer (Dynatech Laboratories, Chantilly, Va.). The reading plate was placed on a shaker for 5 min to obtain a homogeneous mixture. Radioactivity (CPMs) of the wells was counted for 2 min using the 1450 MicroBeta PLUS plate reader (Wallac Inc.).
Total counts of ^51 Cr were determined from 200 μl aliquots taken from the wells to which 100 μl of 5% Triton X-100 (Sigma Chemical Co.) had been added. Total complement mediated lysis was determined from wells treated with HS alone, and background counts were determined from wells treated with HI-HS alone or with peptide alone (no HS). The average background was subtracted from all well counts, and the percent inhibition calculated as total lysis minus lysis with inhibitor/total lysis multiplied by 100. All experimental points were obtained in triplicate, and the data were analyzed in the same manner as the data from the SRBC assays.

Assay [3] addresses binding of rabbit Ig-HRP to solid phase C1q. The assay is described as follows: Inhibition of binding of Ig-HRP to solid phase C1q. The procedure: C1q (gift of Dr. Lawrence Potempa, Immtech International Inc., Evanston, Ill.) diluted to 10 μg/ml in coating buffer was placed in the wells of a microtiter plate (100 μl/well) and incubated for 2 hours at 25° C. The uncoated surfaces of the wells were blocked by adding 340 μl PBSC and incubating the plate for 1 hour at 25° C., followed by washing 3 times with PBSC. Dilutions of Ig-HRP in C1q buffer (50 mM Tris, pH 7.2, 27 mM NaCl, 1 mM CaCl2, 0.01% (wt/v) Thimerosal) were incubated in the wells (100 μl/well) for 1 hour at 25° C. followed by washing 3 times with C1q buffer. OPD substrate buffer was then added (100 μl/well), and the colored product was measured at 414 nm in a Titertek Multiskan plate reader.
C1q was coated onto the surface of the wells of a microtiter plate as described in Part C. […] OPD substrate buffer (100 μl/well) was then added and the colored product measured at 414 nm in a Titertek Mutiskan plate reader.

The target in assay [4] is binding of rabbit Ig-HRP by solid phase Protein A. The assay is described as follows: Inhibition of binding of Ig-HRP to solid phase Protein A. Here is the method:
Protein A (recombinant Protein A from Repligen, Cambridge, Mass.) diluted to 1 μg/ml in coating buffer (0.1M NaHCO3, pH 9.0) was incubated in the wells of a microtiter plate (100 μl per well) for 2 hours at 37° C. Uncoated surfaces of the wells were blocked by adding 340 μl PBSC (9 mM Na2 HPO4, 1 mM NaH2 PO4, pH 7.2, 154 mM NaCl, 1 mg/ml casein or ovalbumin, and 0.01% thimerosal), incubating the plate 1 hour at 37° C., and then washing the wells 3 times with PBSCT (PBSC plus 0.1% Tween 20 (polyoxyethylene sorbitan monolaurate)). Dilutions of rabbit immunoglobulin labeled with horseradish peroxidase (Ig-HRP) (Zymed Laboratories, Inc., South San Francisco, Calif.) in PBS (9 mM Na2 HPO4, 1 mM NaH2 PO4, pH 7.2, 154 mM NaCl) were incubated in the wells (100 μl per well) for 2 hours at 37° C. followed by washing 3 times with PBS. OPD substrate buffer (0.8 mg/ml o-phenylenediamine, 0.1M Na2 HPO4, 0.05M sodium citrate, pH 5.5, plus 0.15% (v/v) H2 O2) was then added to the wells (100 μl/well), and the resultant colored product was measured with a Titertek Multiskan plate reader using a 414 nm filter.
OPD substrate buffer was then added (100 μl/well), and the resulting colored product was measured at 414 nm in a Titertek Multiskan plate reader.
8. […] Then the inhibition assay using solid phase Protein A was performed as described above.

Assay [5] has as its system PAP binding to solid phase CBP2. Put plainly: Elution or inhibition of PAP binding to the CBP2 column by solution peptide. Also on record: species or system rabbit. Here is the method:
An additional 6 ml of C1q buffer was used to wash the column followed by 3 ml of 2% (v/v) acetic acid and then with 6 ml of C1q buffer to completely wash the column.
The sample was then eluted with 21 ml C1q buffer followed by 3 ml of 2% (v/v) acetic acid and then 6 ml C1q buffer. The column fractions were assayed for the presence of peroxidase as described above in Part A, and the concentration of PAP was calculated from the standard curve data.
This was not the case, however, since similar concentrations were used for column elution as for the pre-incubation studies. […] Thus, the effect of aggregates, if they formed, was of little significance.

The mark [6] stands for this setting: same concentration range as CBP2.

Chain of PAP binding to solid phase CBP2 (P01870 whole entry): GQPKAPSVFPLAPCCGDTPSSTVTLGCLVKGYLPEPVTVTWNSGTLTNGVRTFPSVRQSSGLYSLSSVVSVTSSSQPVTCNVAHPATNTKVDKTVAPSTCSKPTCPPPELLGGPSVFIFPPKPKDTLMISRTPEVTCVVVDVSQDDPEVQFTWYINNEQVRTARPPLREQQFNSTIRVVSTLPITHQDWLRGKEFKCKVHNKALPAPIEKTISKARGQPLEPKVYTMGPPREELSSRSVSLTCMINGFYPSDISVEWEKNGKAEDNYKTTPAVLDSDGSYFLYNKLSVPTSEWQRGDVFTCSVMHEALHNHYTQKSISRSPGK

With “Ac-AEAKAKA-NH2 [AEK, Ac-Ala Glu Ala Lys Ala Lys Ala-NH2]”, the “inhibitory activity in the SRBC assay” value in assay [1] was “no inhibitory activity”. Further, the “inhibitory activity in the PAEC assay” value in assay [2] is “no inhibitory activity”.
On to “C1q: complement component C1q, gift of Immtech International, liquid phase positive control”, for which the IC50 in assay [3] (read-out: 50% inhibition concentration for liquid phase C1q inhibiting solid phase C1q) was about 10 nM.
For the substance “Protein A: recombinant Protein A from Repligen, positive control in solution phase [reference compound]”, in assay [4] (Ig-HRP binding to solid phase Protein A, read-out: 50% inhibition concentration for solution phase Protein A), the IC50 was found to be 1 nM.
With “luteinizing hormone releasing hormone [LHRH, reference compound]”, in assay [4] (setting [6]), the “Protein A inhibitory activity” value is listed as “no Protein A or C1q inhibitory activity”. Also, the “PAP binding to solid phase CBP2 after pre-incubation with peptide” value in assay [5] (0.1 mM peptide, 1 hour 25° C., PAP 20 μg/ml) is given as “PAP binding to the column in the range normally observed”. Also, in assay [5] (3 ml of 336.2 μg/ml CBP2 or equimolar LHRH), the “elution of bound PAP from CBP2 column by peptide wash” value was “no significant elution of PAP”. Also, the C1q inhibitory activity entry in assay [3] (setting [6]) is “no Protein A or C1q inhibitory activity”.
